According to publication PMC3690263, “Trypanocidal Activity of Smallanthus sonchifolius: Identification of Active Sesquiterpene Lactones by Bioassay-Guided Fractionation” (Evidence-based Complementary and Alternative Medicine : eCAM, 2013):
Several values for one entry are separate records, joined by “and”; a condition that tells them apart may be missing. Equal values may be shown once. Entries after “also recorded” stand apart in the source; their conditions may differ.

Tests used:
T. cruzi amastigotes = assay: Intracellular amastigotes in J774 macrophages, β-galactosidase/CPRG assay; format: cell-based, Trypanosoma cruzi; conditions: for selectivity index (SI): CC50 Vero cells divided by IC50 T. cruzi amastigotes; for IC50: Trypanosoma cruzi, intracellular amastigotes in J774 macrophages, 48 h after addition
Description: To evaluate the effect of compounds 1–3 on intracellular forms of T. cruzi, 96-well plates were seeded with J774 murine macrophages at 5 × 10^3 per well in 100 μL of culture medium and incubated for 2 h at 37°C in a 5% CO2 atmosphere. Cells were infected with transfected blood trypomastigotes expressing β-galactosidase at a parasite : cell ratio of 10 : 1. After 2 h of coculture, plates were washed twice with PBS to remove free parasites and compounds 1–3 were added at 0.1–50 μg/mL per well in 150 μL of fresh complete RPMI medium without phenol red (Gibco, Rockville, MD). Controls included infected nontreated cells (100% infection control) and uninfected cells (0% infection control). The assay was developed 48 h later by addition of chlorophenol red-β-d-galactopyranoside (100 μM CPRG) and 1% Nonidet P40. Plates were incubated for 4–6 h at 37°C. Wells with galactosidase activity turned the media from yellow to red, and this reaction was quantified at 590 nm in a microplate reader (Bio-Rad Laboratories, Hercules, CA). Percentage inhibition was calculated as 100 − {[(absorbance of treated infected cells)/(absorbance of untreated infected cells)] × 100} and the IC50 value calculated.
The selectivity index (SI) of each compound was calculated as the CC50 obtained with Vero cells divided by the IC50 obtained against T. cruzi amastigotes.

MTT cytotoxicity assay = format: cell-based; conditions: African green monkey, Vero cells
Description: The cytotoxic effect of compounds 1, 2, and 3 on Vero cells was evaluated by using the MTT tetrazolium salt (3-(4,5-dimethylthiazol-2-yl)-2,5-diphenyltetrazolium bromide) (Sigma) colorimetric assay. Cells (5 × 10^4 cells/well) were seeded at a final volume of 150 μL in a flat-bottom 96-well microplate and cultured at 37°C in a 5% CO2 atmosphere in the absence or presence of increasing concentrations of the compounds (1–50 μg/mL). After 24 h, MTT was added at a final concentration of 1.5 mg/mL and plates were incubated for 2 h at 37°C. The purple formazan crystals were completely dissolved by adding 150 μL of ethanol, and the absorbance was detected at 570 nm in a microplate reader. Results were calculated as the ratio between optical density in the presence and absence of the compound multiplied by 100. The 50% cytotoxic concentration (CC50) was calculated for each compound. All experiments were made in duplicate.

T. cruzi epimastigotes = assay: Recovery of epimastigotes after 24 h treatment (residual effect), Neubauer chamber counting; format: cell-based, Trypanosoma cruzi; conditions: for reduction in the replication rate / amount of parasites after treatment: epimastigotes; for reduction in the replication rate: at 24 h after treatment; for amount of parasites after treatment: 24 h treatment
Description: To determine whether the parasites could recover after treatment with the pure compounds, T. cruzi epimastigotes were incubated with compounds 1–3 (0.1, 1, and 10 μg/mL) for 24 h. Parasites were then centrifuged at 3000 rpm for 10 min, resuspended in fresh medium, and incubated for 2 additional days, counting the number of parasite in a Neubauer chamber on a daily basis.

T. cruzi trypomastigotes = assay: Trypanocidal effect on bloodstream trypomastigotes, counting of remaining live parasites; format: cell-based, Trypanosoma cruzi; conditions: 24 h; for IC50: Trypanosoma cruzi
Description: The trypanocidal effect of compounds 1, 2, and 3 was also tested on bloodstream trypomastigotes as previously described. Briefly, mouse blood containing trypomastigotes was adjusted to a concentration of 1.5 × 10^6 parasite/mL and seeded (150 μL/well) by duplicate into a 96-well microplate, in the presence of each compound (1 to 50 μg/mL, final concentration). Plates were incubated for 24 h, and the remaining live parasites were counted in a haemocytometer.

[1] = test system: T. cruzi epimastigotes (RA strain); assay: [3H] thymidine uptake assay, growth inhibition of T. cruzi epimastigotes; format: cell-based; conditions: Trypanosoma cruzi, 72 h of incubation
Description: T. cruzi epimastigotes (RA strain) were grown in liver infusion tryptose medium (LIT) supplemented with 10% fetal bovine serum (Natocor). Cultures were routinely maintained by weekly passages at 28°C. T. cruzi trypomastigotes were routinely maintained by infecting 21-day-old male CF1 mice. T. cruzi amastigotes were obtained by infecting J774 cells with bloodstream trypomastigotes.
S. sonchifolius OE and fractions F 1A–F 5B were tested for trypanocidal activity against T. cruzi epimastigotes, at final concentrations of 10 μg/mL and 100 μg/mL, by a [^3H] thymidine uptake assay as previously described. Compounds 1, 2, and 3 were tested at final concentrations ranging from 0.01 μg/mL to 50 μg/mL. Stock solutions of the samples were prepared in ethanol : water (1 : 1). Epimastigotes in exponential growth phase were adjusted to 1.5 × 10^6 parasites/mL and seeded on 96-well plates in the presence of the different concentrations of OE, fractions, or compounds. Parasites were cultured in triplicate for 72 h. Control parasites were cultured in absence or presence of benznidazole (20 μM; Roche-Rio de Janeiro, Brazil). Percentage inhibition was calculated as 100 − {[(cpm of treated parasites)/(cpm of untreated parasites)] × 100}. The compound concentration at which the parasite growth was inhibited by 50% (inhibitory concentration 50, IC50) was determined after 72 h.

[2] = 10 μg/mL for 24 h, then 2 days in fresh medium

SMILES	selectivity index (SI) (T. cruzi amastigotes)	IC50 (T. cruzi amastigotes)	CC50 at 24 h (MTT cytotoxicity assay)	recovery of epimastigote replication after removal of compound (T. cruzi epimastigotes; 0.1 μg/mL for 24 h, then fresh medium)	reduction in the replication rate (T. cruzi epimastigotes; 10 μg/mL) [%]	activity against trypomastigotes (T. cruzi trypomastigotes; 1 to 50 μg/mL)	IC50 [1]	recovery of epimastigote replication after removal of compound (T. cruzi epimastigotes; [2])	reduction in the replication rate (T. cruzi epimastigotes; 1 μg/mL) [%]	amount of parasites after treatment (T. cruzi epimastigotes; 10 μg/mL)	IC50 (T. cruzi trypomastigotes)
C=C1C(=O)O[C@@H]2/C=C(\C)CC/C=C(/C(=O)OC)[C@H](OC(C)=O)[C@@H](OC(=O)/C(C)=C\C)[C@@H]12 [polymatin B, 8β-angeloyloxi-9α-acetyloxi-1(10)E,4E,11(13)-germacratrien-12,6α-olide-14-oic acid methyl ester]	16.3	9.02 µM and 3.9 µg/mL	147 µM and 63.7 µg/mL	recovered their replication rates at values similar to the control parasites	~50	not active	4.9 µM and 2.12 µg/mL				
C=C1C(=O)O[C@@H]2/C=C(\C)CC/C=C(/C(=O)OC)[C@H](OC(C)=O)[C@@H](OC(=O)[C@]3(C)O[C@@H]3C)[C@@H]12 [uvedalin, 8β-(2′S,3′S)-epoxyangeloyloxy-9α-acetyloxy-1(10)E,4E,11(13)-germacratrien-12,6α-olide-14-oic acid methyl ester]	14	3.34 µM and 1.5 µg/mL	46.8 µM and 21 µg/mL				1.09 µM and 0.49 µg/mL	not able to recover their replication rate; also recorded: no recuperation of the epimastigotes was observed; also recorded: not able to recover their initial replication rates	~50	drastic reduction in the amount of parasites	25 µM and 11.2 µg/mL
C=C1C(=O)O[C@H]2[C@H]1[C@H](OC(=O)[C@@]1(C)O[C@H]1C)[C@@H](OC(C)=O)/C(C(=O)OC)=C\CC[C@@]1(C)O[C@H]21 [enhydrin, 4α,5β-epoxy-8β-(2′S,3′S)-epoxyangeloyloxy-9α-acetyloxy-1(10)E,11(13)-germacradien-12,6α-olide-14-oic-acid methyl ester]	9	5.17 µM and 2.4 µg/mL	46.5 µM and 21.6 µg/mL				840 nM and 0.39 µg/mL	not able to recover their replication rate; also recorded: no recuperation of the epimastigotes was observed; also recorded: not able to recover their initial replication rates	~50	drastic reduction in the amount of parasites	33.4 µM and 15.5 µg/mL
